Values quoted from earlier work as cited in patent US6641839B1, “Pharmaceutical formulations for preventing drug tolerance” (Athpharma Limited, priority 1987, dated 2003).

Conditions: nitrate therapy, widely believed critical level

SMILES	minimum critical plasma concentration for therapeutic effect
O=[N+]([O-])O[C@@H]1CO[C@H]2[C@@H]1OC[C@@H]2O [IS-5-MN, isosorbide-5-mononitrate]	approximately 100 ng/ml
O=[N+]([O-])O[C@H]1CO[C@H]2[C@@H]1OC[C@H]2O [IS-2-MN, isosorbide-2-mononitrate]	approximately 20 ng/ml
